The numbers were not newly measured in patent US20230320382A1 (DSM IP Assets B.V., priority 2018, published 2023), which cites them from elsewhere.

Setting [1] is: added to the diet of growing pigs.

In the case of `O=C(O)c1ccccc1` [Benzoic acid], under setting [1], the “Effect on blood pH” value is recorded as “only slightly reduces” and the “Effect on urine pH” value was “markedly acidifies”. For the same molecule, the Site of absorption result (ingested benzoic acid) was “absorbed in the first tract of the small intestine”.
